From patent US20050282888A1, “Fungicidal composition” (Sumitomo Chemical Company, Limited, priority 2004, published 2005) come the findings set out here.

For this assay, the system named is Plasmopara viticola. The assay is described as follows: Test Example 1: spray test on grape seedlings inoculated with Plasmopara viticola (protective value). The format is in vivo, Plasmopara viticola on grape (variety: Berry A). Particulars: single active ingredient, wettable powder sprayed on grape seedlings before inoculation, assessed after one night plus 7 days; for pest or weed control at 50 ppm: Plasmopara viticola, 168 h, read-out: Actual protective value; for Actual protective value: 50 ppm. As to the method: Next, it is shown that the present invention compositions have an excellent controlling activity against plant diseases as test example. Generally, an expected controlling value, when two active ingredient compounds are mixed and applied, can be calculated by the Colby's formula described below. E=X+Y−(X×Y)/100 • X: protective value (%) when treatment is carried out by using an active ingredient compound A at the concentration of m ppm. • Y: protective value (%) when treatment is carried out by using an active ingredient compound B at the concentration of n ppm • E: protective value (%) when treatment is carried out by using the active ingredient compound A at the concentration of m ppm and the active ingredient compound B at the concentration of n ppm (hereinafter referred to as “expected protective value”) And, generally speaking, if actual protective value (%) when treatment is carried out by actually mixing two kinds of active ingredient compounds is not less than the expected protective value (%), it can be said that there is a mixing effect.
Sandy loam soil was compacted in a plastic pot, and a grape (variety: Berry A) was seeded and grown in a green house for 40 days. The test drug formulated to wettable powder according to Formulation Example 5, then, diluted with water to provide prescribed concentration, and these diluted solutions were sprayed onto stems and leaves so as to give sufficient adhesion on the surface of grape leaves. After that, a suspension of zoosporangia of Plasmopara viticola was inoculated by spraying to stems and leaves of the grape seedling. After inoculation, the grape seedling was first grown for one night at 23° C. under humid, then further grown for 7 days in the green house. Then, the ratio of diseased area (%) of Plasmopara viticola on stems and leaves of the grape seedling was investigated and the actual protective value was obtained according to the formula described below form the investigated result. protective value (%)={[the ratio of diseased area of non treated plant (%)−the ratio of diseased area of treated plant (%)/]/[the ratio of diseased area of non treated plant (%)]}×100

Consider `C#CCOc1ccc(CCC(=O)NCc2ccc(C)cc2)cc1OC` [(I-1), N-(4-methylbenzyl)-3-{3-methoxy-4-(2-propynyloxy)phenyl}pro panamide], for which the pest or weed control at 50 ppm came to 100%.

`C#CCOc1ccc(CCC(=O)NCc2ccc(C)c(C)c2)cc1OC` [(I-2)]: the Actual protective value is reported as 100%.

For `C#CCOc1ccc(CCC(=S)NCc2ccc(C)cc2)cc1OC` [(I-3), N-(4-methylbenzyl)-3-(3-methoxy-4-(2-propynyloxy)phenyl}pro panthioamide], the pest or weed control at 50 ppm came to 100%.

With `C#CCOc1ccc(CCC(=S)NCc2ccc(C)c(C)c2)cc1OC` [(I-4), N-(3,4-dimethylbenzyl)-3-{3-methoxy-4-(2-propynyloxy)phenyl}propanthioamide], the pest or weed control at 50 ppm was determined as 100%.

With `C#CCOc1ccc(CCC(=O)NC(C#N)c2ccccc2)cc1OC` (stereo not drawn) [(I-5), N-(1-phenyl-1-cyanomethyl)-3-{3-methoxy-4-(2-propynyloxy)phenyl}propanamide], the pest or weed control at 50 ppm is 100%.

As for `C#CCOc1ccc(CCC(=O)NC(C#N)c2ccc(C)cc2)cc1OC` (stereo not drawn) [(I-6), N-{1-(4-methylphenyl)-1-cyanomethyl)-3-(3-methoxy-4-(2-propynyloxy)phenyl}propanamide], the pest or weed control at 50 ppm was 100%.

Turning to `CCOc1ccc(CCC(=O)NC(C#N)c2ccc(C)cc2)cc1OC` (stereo not drawn) [(I-7), N-{1-(4-methylphenyl)-1-cyanomethyl}-3-(3-methoxy-4-ethoxyphenyl)propanamide], the pest or weed control at 50 ppm is 100%.

For the compound `C#CCOc1ccc(CCC(=O)NCc2ccc(CC)cc2)cc1OC` [(I-8), N-(4-ethylbenzyl)-3-{3-methoxy-4-(2-propynyloxy)phenyl}prop anamide], the pest or weed control at 50 ppm was 100%.

As to `C#CCOc1ccc(CCC(=O)NC(C#N)c2ccc(CC)cc2)cc1OC` (stereo not drawn) [(I-9), N-{1-(4-ethylphenyl)-1-cyanomethyl)-3-(3-methoxy-4-(2-propynyloxy)phenyl)propanamide], the pest or weed control at 50 ppm came out at 100%.

`C#CCOc1ccc(CCC(=O)NCc2ccc(Cl)cc2)cc1OC` [(I-10), N-(4-chlorobenzyl)-3-(3-methoxy-4-(2-propynyloxy)phenyl}pro panamide]: the pest or weed control at 50 ppm is 100%.

For `C#CCOc1ccc(CCC(=O)NCc2ccc(Cl)c(Cl)c2)cc1OC` [(I-11), N-(3,4-dichlorobenzyl)-3-{3-methoxy-4-(2-propynyloxy)phenyl}propanamide], the pest or weed control at 50 ppm was determined as 100%.

For `C#CCOc1ccc(CCC(=O)NCc2ccc(Cl)cc2)cc1OCC` [(I-12), N-(4-chlorobenzyl)-3-{3-ethoxy-4-(2-propionyloxy)phenyl}pro panamide], the Actual protective value came to 100%.

In the case of `C#CCOc1ccc(CCC(=S)NCc2ccc(Cl)cc2)cc1OC` [(I-13), N-(4-chlorobenzyl)-3-(3-methoxy-4-(2-propynyloxy)phenyl}pro panthioamide], the pest or weed control at 50 ppm came out at 100%.

Consider `C#CCOc1ccc(CCC(=S)NCc2ccc(Cl)c(Cl)c2)cc1OC` [(I-14), N-(3,4-dichlorobenzyl)-3-{3-methoxy-4-(2-propynyloxy)phenyl}propanthioamide], for which the pest or weed control at 50 ppm worked out at 100%.

In the case of `C#CCOc1ccc(CCC(=S)NCc2ccc(Cl)cc2)cc1OCC` [(I-15), N-(4-chlorobenzyl)-3-(3-ethoxy-4-(2-propynyloxy)phenyl)prop anthioamide], the pest or weed control at 50 ppm amounted to 100%.

In the case of `C#CCOc1ccc(CCC(=O)NC(C#N)c2ccc(Cl)cc2)cc1OC` (stereo not drawn) [(I-16), N-{1-(4-chlorophenyl)-1-cyanomethyl}-3-{3-methoxy-4-(2-propynyloxy)phenyl}propanamide], the pest or weed control at 50 ppm was 100%.

`CCOc1ccc(CCC(=O)NC(C#N)c2ccc(Cl)cc2)cc1OC` (stereo not drawn) [(I-17), N-{1-(4-chlorophenyl)-1-cyanomethyl)-3-(3-methoxy-4-ethoxyphenyl)propanamide]: the pest or weed control at 50 ppm was determined as 100%.

Take `C#CCOc1ccc(CCC(=O)NCc2ccc(Br)cc2)cc1OC` [(I-18)]: the Actual protective value was 100%.

Consider `C#CCOc1ccc(CCC(=S)NCc2ccc(Br)cc2)cc1OC` [(I-19), N-(4-bromobenzyl)-3-{3-methoxy-4-(2-propynyloxy)phenyl)prop anthioamide], for which the pest or weed control at 50 ppm came out at 100%.

As for `C#CCOc1ccc(CCC(=O)NC(C#N)c2ccc(Br)cc2)cc1OC` (stereo not drawn) [(I-20), N-{1-(4-bromophenyl)-1-cyanomethyl}-3-(3-methoxy-4-(2-propynyloxy)phenyl}propanamide], the pest or weed control at 50 ppm was 100%.

For the compound `CCOc1ccc(CCC(=O)NC(C#N)c2ccc(Br)cc2)cc1OC` (stereo not drawn) [(I-21)], the Actual protective value is recorded as 100%.

Consider `C#CCOc1ccc(CCC(=O)NCc2ccc3c(c2)CCC3)cc1OC` [(I-22), N-{(indan-5-yl)methyl}-3-{3-methoxy-4-(2-propynyloxy)phenyl}propanamide], for which the pest or weed control at 50 ppm worked out at 100%.

`C#CCOc1ccc(CCC(=S)NCc2ccc3c(c2)CCC3)cc1OC` [(I-23), N-(indan-5-ylmethyl)-3-(3-methoxy-4-(2-propynyloxy)phenyl)p ropanthioamide]: the pest or weed control at 50 ppm turned out to be 100%.

On to `C#CCOc1ccc(CCC(=O)NC(C#N)c2ccc3c(c2)CCC3)cc1OC` (stereo not drawn) [(I-24), N-{1-(indan-5-yl)-1-cyanomethyl}-3-{3-methoxy-4-(2-propynyloxy)phenyl}propanamide], for which the pest or weed control at 50 ppm amounted to 100%.

With `C#CCOc1ccc(CCC(=O)NCc2ccc3c(c2)CCCC3)cc1OC` [(I-25), N-((5,6,7,8-tetrahydronaphthalene-2-yl)methyl)-3-(3-methoxy-4-(2-propynyloxy)phenyl)propanamide], the pest or weed control at 50 ppm turned out to be 100%.

For the compound `C#CCOc1ccc(CCC(=S)NCc2ccc3c(c2)CCCC3)cc1OC` [(I-26), N-(5,6,7,8-tetrahydronaphthalene-2-ylmethyl)-3-(3-methoxy-4-(2-propynyloxy)phenyl}propanthioamide], the pest or weed control at 50 ppm was 100%.

For `C#CCOc1ccc(CCC(=O)NC(C#N)c2ccc3c(c2)CCCC3)cc1OC` (stereo not drawn) [(I-27), N-{1-(5,6,7,8-tetrahydronaphthalene-2-yl)-1-cyanomethyl}-3-(3-methoxy-4-(2-propyonyloxy)phenyl)propanamide], the Actual protective value is listed as 100%.

Take `C#CCOc1ccc(CCC(=O)NCc2ccc3ccccc3c2)cc1OC` [(I-28), N-{(naphthalene-2-yl)methyl}-3-{3-methoxy-4-(2-propynyloxy)phenyl}propanamide]: the pest or weed control at 50 ppm is 100%.

With `C#CCOc1ccc(CCC(=S)NCc2ccc3ccccc3c2)cc1OC` [(I-29), N-{(naphthalene-2-yl)methyl}-3-{3-methoxy-4-(2-propynyloxy)phenyl)propanthioamide], the pest or weed control at 50 ppm was found to be 100%.

For `COc1ccc(C(=CC(=O)N2CCOCC2)c2ccc(Cl)cc2)cc1OC` [dimethomorph, 4-[3-(4-chlorophenyl)-3-(3,4-dimethoxyphenyl)acryloyl]morph oline, reference compound], the pest or weed control at 50 ppm worked out at 100%.
